Reference: ChEMBL document CHEMBL4725318, “New vinyl-1,2,4-triazole derivatives as antimicrobial agents: Synthesis, biological evaluation and molecular docking studies” (2020)
Values after ≈ are worked out from the molar mass of the structure shown.

Key:
Format in all cases: functional
Bacillus subtilis [1] = experiment: Antibacterial activity against Bacillus subtilis by microdilution method
Pseudomonas fluorescens [2] = experiment: Antibacterial activity against Pseudomonas fluorescens by microdilution method
Erwinia amylovora [3] = experiment: Antibacterial activity against Erwinia amylovora by microdilution method
[4] = system: Pectobacterium carotovorum; experiment: Antibacterial activity against Erwinia carotovora by microdilution method
Xanthomonas campestris [5] = experiment: Antibacterial activity against Xanthomonas campestris by microdilution method
Bacillus subtilis [6] = experiment: Bactericidal activity against Bacillus subtilis
Pseudomonas fluorescens [7] = experiment: Bactericidal activity against Pseudomonas fluorescens
Erwinia amylovora [8] = experiment: Bactericidal activity against Erwinia amylovora
[9] = system: Pectobacterium carotovorum; experiment: Bactericidal activity against Erwinia carotovora
Xanthomonas campestris [10] = experiment: Bactericidal activity against Xanthomonas campestris
Aspergillus fumigatus [11] = experiment: Antifungal activity Aspergillus fumigatus by microdilution method
Aspergillus versicolor [12] = experiment: Antifungal activity Aspergillus versicolor by microdilution method
Aspergillus ochraceus [13] = experiment: Antifungal activity Aspergillus ochraceus by microdilution method
Aspergillus niger [14] = experiment: Antifungal activity Aspergillus niger by microdilution method
Trichoderma viride [15] = experiment: Antifungal activity Trichoderma viride by microdilution method
Talaromyces funiculosus [16] = experiment: Antifungal activity Penicillium funiculosum by microdilution method
Penicillium ochrochloron [17] = experiment: Antifungal activity Penicillium ochrochloron by microdilution method
Penicillium cyclopium [18] = experiment: Antifungal activity Penicillium verrucosum var. cyclopium by microdilution method
Aspergillus fumigatus [19] = experiment: Fungicidal activity Aspergillus fumigatus
Aspergillus versicolor [20] = experiment: Fungicidal activity Aspergillus versicolor
Aspergillus ochraceus [21] = experiment: Fungicidal activity Aspergillus ochraceus
Aspergillus niger [22] = experiment: Fungicidal activity Aspergillus niger
Trichoderma viride [23] = experiment: Fungicidal activity Trichoderma viride
Talaromyces funiculosus [24] = experiment: Fungicidal activity Penicillium funiculosum
Penicillium ochrochloron [25] = experiment: Fungicidal activity Penicillium ochrochloron
Penicillium cyclopium [26] = experiment: Fungicidal activity Penicillium verrucosum var. cyclopium

| Compound | MIC (Bacillus subtilis [1]) [µM] | MIC (Pseudomonas fluorescens [2]) [µM] | MIC (Erwinia amylovora [3]) [µM] | MIC [4] [µM] | MIC (Xanthomonas campestris [5]) [µM] | MBC (Bacillus subtilis [6]) [µM] | MBC (Pseudomonas fluorescens [7]) [µM] | MBC (Erwinia amylovora [8]) [µM] | MBC [9] [µM] | MBC (Xanthomonas campestris [10]) [µM] | MIC (Aspergillus fumigatus [11]) [µM] | MIC (Aspergillus versicolor [12]) [µM] | MIC (Aspergillus ochraceus [13]) [µM] | MIC (Aspergillus niger [14]) [µM] | MIC (Trichoderma viride [15]) [µM] | MIC (Talaromyces funiculosus [16]) [µM] | MIC (Penicillium ochrochloron [17]) [µM] | MIC (Penicillium cyclopium [18]) [µM] | MFC (Aspergillus fumigatus [19]) [µM] | MFC (Aspergillus versicolor [20]) [µM] | further results |
| --- | --- | --- | --- | --- | --- | --- | --- | --- | --- | --- | --- | --- | --- | --- | --- | --- | --- | --- | --- | --- | --- |
| CC1(C)S[C@@H]2[C@H](NC(=O)[C@H](N)c3ccccc3)C(=O)N2[C@H]1C(=O)O [AMPICILLIN] | 0.2 (≈ 0.0699 µg/mL) | 8.6 (≈ 3 µg/mL) | 0.25 (≈ 0.0874 µg/mL) | 0.1 (≈ 0.0349 µg/mL) | 0.2 (≈ 0.0699 µg/mL) | 0.2 (≈ 0.0699 µg/mL) | 8.6 (≈ 3 µg/mL) | 0.5 (≈ 0.175 µg/mL) | 0.2 (≈ 0.0699 µg/mL) | 0.2 (≈ 0.0699 µg/mL) | – | – | – | – | – | – | – | – | – | – | – |
| CN(C)c1ccc(/C=C(/C(=O)c2ccc3ccccc3c2)n2cncn2)cc1 | 5.4 (≈ 1.99 µg/mL) | 2.7 (≈ 0.995 µg/mL) | 2.7 (≈ 0.995 µg/mL) | 2.7 (≈ 0.995 µg/mL) | 2.7 (≈ 0.995 µg/mL) | 5.4 (≈ 1.99 µg/mL) | 2.7 (≈ 0.995 µg/mL) | 5.4 (≈ 1.99 µg/mL) | 2.7 (≈ 0.995 µg/mL) | 5.4 (≈ 1.99 µg/mL) | 140 (≈ 51.6 µg/mL) | 140 (≈ 51.6 µg/mL) | 70 (≈ 25.8 µg/mL) | 140 (≈ 51.6 µg/mL) | 70 (≈ 25.8 µg/mL) | 190 (≈ 70 µg/mL) | 140 (≈ 51.6 µg/mL) | 140 (≈ 51.6 µg/mL) | 270 (≈ 99.5 µg/mL) | 270 (≈ 99.5 µg/mL) | MFC (Aspergillus ochraceus [21]): 140 µM (≈ 51.6 µg/mL); MFC (Aspergillus niger [22]): 270 µM (≈ 99.5 µg/mL); MFC (Trichoderma viride [23]): 140 µM (≈ 51.6 µg/mL); MFC (Talaromyces funiculosus [24]): 270 µM (≈ 99.5 µg/mL); MFC (Penicillium ochrochloron [25]): 270 µM (≈ 99.5 µg/mL); MFC (Penicillium cyclopium [26]): 270 µM (≈ 99.5 µg/mL) |
| CC(C)CC(=O)/C(=C/c1ccc([N+](=O)[O-])cc1)n1cncn1 | 0.8 (≈ 0.24 µg/mL) | 3.3 (≈ 0.991 µg/mL) | 0.4 (≈ 0.12 µg/mL) | 0.4 (≈ 0.12 µg/mL) | 0.8 (≈ 0.24 µg/mL) | 0.8 (≈ 0.24 µg/mL) | 3.3 (≈ 0.991 µg/mL) | 0.8 (≈ 0.24 µg/mL) | 0.8 (≈ 0.24 µg/mL) | 0.8 (≈ 0.24 µg/mL) | 20 (≈ 6.01 µg/mL) | 40 (≈ 12 µg/mL) | 20 (≈ 6.01 µg/mL) | 20 (≈ 6.01 µg/mL) | 30 (≈ 9.01 µg/mL) | 40 (≈ 12 µg/mL) | 30 (≈ 9.01 µg/mL) | 40 (≈ 12 µg/mL) | 30 (≈ 9.01 µg/mL) | 60 (≈ 18 µg/mL) | MFC (Aspergillus ochraceus [21]): 30 µM (≈ 9.01 µg/mL); MFC (Aspergillus niger [22]): 30 µM (≈ 9.01 µg/mL); MFC (Trichoderma viride [23]): 60 µM (≈ 18 µg/mL); MFC (Talaromyces funiculosus [24]): 60 µM (≈ 18 µg/mL); MFC (Penicillium ochrochloron [25]): 60 µM (≈ 18 µg/mL); MFC (Penicillium cyclopium [26]): 60 µM (≈ 18 µg/mL) |
| O=C(/C(=C/c1cc([N+](=O)[O-])ccc1O)n1cncn1)c1ccc(Cl)cc1 | 2.7 (≈ 1 µg/mL) | 1.3 (≈ 0.482 µg/mL) | 2.7 (≈ 1 µg/mL) | 2.7 (≈ 1 µg/mL) | 1.3 (≈ 0.482 µg/mL) | 2.7 (≈ 1 µg/mL) | 2.7 (≈ 1 µg/mL) | 2.7 (≈ 1 µg/mL) | 2.7 (≈ 1 µg/mL) | 2.7 (≈ 1 µg/mL) | 200 (≈ 74.2 µg/mL) | 100 (≈ 37.1 µg/mL) | 100 (≈ 37.1 µg/mL) | 150 (≈ 55.6 µg/mL) | 100 (≈ 37.1 µg/mL) | 150 (≈ 55.6 µg/mL) | 100 (≈ 37.1 µg/mL) | 200 (≈ 74.2 µg/mL) | 410 (≈ 152 µg/mL) | 200 (≈ 74.2 µg/mL) | MFC (Aspergillus ochraceus [21]): 200 µM (≈ 74.2 µg/mL); MFC (Aspergillus niger [22]): 200 µM (≈ 74.2 µg/mL); MFC (Trichoderma viride [23]): 200 µM (≈ 74.2 µg/mL); MFC (Talaromyces funiculosus [24]): 200 µM (≈ 74.2 µg/mL); MFC (Penicillium ochrochloron [25]): 200 µM (≈ 74.2 µg/mL); MFC (Penicillium cyclopium [26]): 410 µM (≈ 152 µg/mL) |
| O=C(/C(=C/c1cccc(O)c1)n1cncn1)c1ccccc1 | 6.9 (≈ 2.01 µg/mL) | 1.7 (≈ 0.495 µg/mL) | 1.7 (≈ 0.495 µg/mL) | 1.7 (≈ 0.495 µg/mL) | 1.7 (≈ 0.495 µg/mL) | 6.9 (≈ 2.01 µg/mL) | 1.7 (≈ 0.495 µg/mL) | 3.4 (≈ 0.99 µg/mL) | 1.7 (≈ 0.495 µg/mL) | 3.4 (≈ 0.99 µg/mL) | 380 (≈ 111 µg/mL) | 260 (≈ 75.7 µg/mL) | 190 (≈ 55.3 µg/mL) | 520 (≈ 151 µg/mL) | 190 (≈ 55.3 µg/mL) | 260 (≈ 75.7 µg/mL) | 260 (≈ 75.7 µg/mL) | 380 (≈ 111 µg/mL) | 520 (≈ 151 µg/mL) | 520 (≈ 151 µg/mL) | MFC (Aspergillus ochraceus [21]): 520 µM (≈ 151 µg/mL); MFC (Aspergillus niger [22]): 100 µM (≈ 29.1 µg/mL); MFC (Trichoderma viride [23]): 260 µM (≈ 75.7 µg/mL); MFC (Talaromyces funiculosus [24]): 520 µM (≈ 151 µg/mL); MFC (Penicillium ochrochloron [25]): 520 µM (≈ 151 µg/mL); MFC (Penicillium cyclopium [26]): 520 µM (≈ 151 µg/mL) |
| CC(=O)N1CCN(c2ccc(OCC3COC(Cn4ccnc4)(c4ccc(Cl)cc4Cl)O3)cc2)CC1 (stereo not given) [KETOCONAZOLE] | – | – | – | – | – | – | – | – | – | – | 380 (≈ 202 µg/mL) | 380 (≈ 202 µg/mL) | 280 (≈ 149 µg/mL) | 380 (≈ 202 µg/mL) | 1880 (≈ 999 µg/mL) | 380 (≈ 202 µg/mL) | 1880 (≈ 999 µg/mL) | 380 (≈ 202 µg/mL) | 940 (≈ 500 µg/mL) | 940 (≈ 500 µg/mL) | MFC (Aspergillus ochraceus [21]): 380 µM (≈ 202 µg/mL); MFC (Aspergillus niger [22]): 940 µM (≈ 500 µg/mL); MFC (Trichoderma viride [23]): 2820 µM (≈ 1500 µg/mL); MFC (Talaromyces funiculosus [24]): 940 µM (≈ 500 µg/mL); MFC (Penicillium ochrochloron [25]): 2820 µM (≈ 1500 µg/mL); MFC (Penicillium cyclopium [26]): 570 µM (≈ 303 µg/mL) |
